Source: ChEMBL document CHEMBL4251606, “Design and characterization of α-lipoic acyl shikonin ester twin drugs as tubulin and PDK1 dual inhibitors” (Eur J Med Chem, 2018)
pIC50: −log10 of the molar value. The source made the active and inactive calls. No cut-off for these calls is given here.

How the values were obtained:
[1] = test system: HepG2; assay: Antiproliferative activity against human HepG2 cells after 24 hrs by MTT assay; format: functional, cell-based; settings: HepG2, 24 h
[2] = test system: MDA-MB-231; assay: Antiproliferative activity against human MDA231 cells after 24 hrs by MTT assay; format: functional, cell-based; settings: MDA-MB-231, 24 h
[3] = test system: HeLa; assay: Antiproliferative activity against human HeLa cells after 24 hrs by MTT assay; format: functional, cell-based
[4] = test system: A549; assay: Antiproliferative activity against human A549 cells after 24 hrs by MTT assay; format: functional, cell-based; settings: A549, 24 h
[5] = test system: L02; assay: Antiproliferative activity against human LO2 cells after 24 hrs by MTT assay; format: cell-based; settings: L02, 24 h
[6] = test system: HEK-293T; assay: Antiproliferative activity against human 293T cells after 24 hrs by MTT assay; format: cell-based
[7] = biological target: [Pyruvate dehydrogenase (acetyl-transferring)] kinase isozyme 1, mitochondrial (Homo sapiens) (UniProt Q15118); settings: HeLa, 10 mM
Description: Inhibition of PDK1 in human HeLa cells assessed as increase in PDH-E1 alpha expression at 10 mM by Western blot analysis

[8] = biological target: [Pyruvate dehydrogenase (acetyl-transferring)] kinase isozyme 1, mitochondrial (Homo sapiens) (UniProt Q15118); settings: HeLa, 10 mM; remark: listed apart in the source
Description: Inhibition of PDK1 in human HeLa cells assessed as decrease in PDH-E1 alpha p-ser300 expression at 10 mM by Western blot analysis

[9] = biological target: [Pyruvate dehydrogenase (acetyl-transferring)] kinase isozyme 1, mitochondrial (Homo sapiens) (UniProt Q15118); settings: HeLa, 10 mM; remark: listed apart in the source
Description: Inhibition of PDK1 in human HeLa cells assessed as decrease in PDH-E1 alpha p-ser232 expression at 10 mM by Western blot analysis

[10] = test system: HeLa; assay: Induction of microtubule polymerization in human HeLa cells assessed as bundle like formation at 0.5 uM after 24 hrs by rhodamine/DAPI staining-based confocal microscopic analysis; format: cell-based
[11] = species on record: Homo sapiens; assay: Induction of microtubule polymerization (unknown origin) at 0.5 uM after 24 hrs by immunoblot
[12] = test system: HeLa; assay: Inhibition of microtubule polymerization in human HeLa cells at 0.5 uM after 24 hrs by rhodamine/DAPI staining-based confocal microscopic analysis; format: cell-based
[13] = species on record: Homo sapiens; assay: Inhibition of microtubule polymerization (unknown origin) at 0.5 uM after 24 hrs by immunoblot
[14] = test system: HeLa; assay: Cell cycle arrest in human HeLa cells assessed as accumulation of cells at G1 phase at 1 uM after 24 hrs by propidium iodide staining-based FACScan flow cytometric analysis (reference value: 64.58%); format: functional
[15] = test system: HeLa; assay: Cell cycle arrest in human HeLa cells assessed as accumulation of cells at S phase at 1 uM after 24 hrs by propidium iodide staining-based FACScan flow cytometric analysis (reference value: 20.45%); format: functional
[16] = test system: HeLa; assay: Cell cycle arrest in human HeLa cells assessed as accumulation of cells at G2/M phase at 1 uM after 24 hrs by propidium iodide staining-based FACScan flow cytometric analysis (reference value: 14.97%); format: functional
[17] = test system: HeLa; assay: Cell cycle arrest in human HeLa cells assessed as accumulation of cells at G1 phase at 2 uM after 24 hrs by propidium iodide staining-based FACScan flow cytometric analysis (reference value: 64.58%); format: functional
[18] = test system: HeLa; assay: Cell cycle arrest in human HeLa cells assessed as accumulation of cells at S phase at 2 uM after 24 hrs by propidium iodide staining-based FACScan flow cytometric analysis (reference value: 20.45%); format: functional
[19] = test system: HeLa; assay: Cell cycle arrest in human HeLa cells assessed as accumulation of cells at G2/M phase at 2 uM after 24 hrs by propidium iodide staining-based FACScan flow cytometric analysis (reference value: 14.97%); format: functional
[20] = test system: HeLa; assay: Cell cycle arrest in human HeLa cells assessed as accumulation of cells at G1 phase at 4 uM after 24 hrs by propidium iodide staining-based FACScan flow cytometric analysis (reference value: 64.58%); format: functional
[21] = test system: HeLa; assay: Cell cycle arrest in human HeLa cells assessed as accumulation of cells at S phase at 4 uM after 24 hrs by propidium iodide staining-based FACScan flow cytometric analysis (reference value: 20.45%); format: functional
[22] = test system: HeLa; assay: Cell cycle arrest in human HeLa cells assessed as accumulation of cells at G2/M phase at 4 uM after 24 hrs by propidium iodide staining-based FACScan flow cytometric analysis (reference value: 14.97%); format: functional
[23] = test system: HeLa; assay: Inhibition of microtubule polymerization in human HeLa cells at 4 uM after 24 hrs by rhodamine/DAPI staining-based confocal microscopic analysis; format: cell-based
[24] = test system: HeLa; assay: Antitumor activity against human HeLa cells xenografted in nude mouse assessed as reduction in tumor size at 1 mg/kg, ip administered once in every 2 days for 15 days relative to control; format: functional, organism-based
[25] = test system: Mus musculus; assay: Toxicity in nude mouse xenografted with human HeLa cells assessed as loss in body weight at 1 mg/kg, ip administered once in every 2 days for 15 days; format: organism-based; settings: in vivo

CC(C)=CC[C@@H](OC(=O)CCCC[C@@H]1CCSC(c2ccccc2Cl)S1)C1=CC(=O)c2c(O)ccc(O)c2C1=O (some centres undefined)
pIC50 [1]: 4.95 | pIC50 [2]: 4.69 | pIC50 [3]: 4.78 | pIC50 [4]: 4.77 | pIC50 [5]: 4.02 | pIC50 [6]: 4.11

CC(C)=CC[C@@H](OC(=O)CCCC[C@@H]1CCSC(C2CCCCC2)S1)C1=CC(=O)c2c(O)ccc(O)c2C1=O (some centres undefined)
pIC50 [1]: 4.55 | pIC50 [2]: 4.71 | pIC50 [3]: 4.66 | pIC50 [4]: 4.57 | pIC50 [5]: 3.97 | pIC50 [6]: 3.94

CC(C)=CC[C@@H](OC(=O)CCCC[C@@H]1CCSC(c2ccc(Cl)cc2)S1)C1=CC(=O)c2c(O)ccc(O)c2C1=O (some centres undefined)
pIC50 [1]: 5.17 | pIC50 [2]: 4.75 | pIC50 [3]: 4.67 | pIC50 [4]: 5.13 | pIC50 [5]: 4.08 | pIC50 [6]: 4.19

CC(C)=CC[C@@H](OC(=O)CCCC[C@@H]1CCSC(c2ccccc2C)S1)C1=CC(=O)c2c(O)ccc(O)c2C1=O (some centres undefined)
pIC50 [1]: 4.61 | pIC50 [2]: 4.76 | pIC50 [3]: 4.83 | pIC50 [4]: 5.00 | pIC50 [5]: 4.05 | pIC50 [6]: 3.99

CC(C)=CC[C@@H](OC(=O)CCCC[C@@H]1CCSC(c2cccc(Cl)c2Cl)S1)C1=CC(=O)c2c(O)ccc(O)c2C1=O (some centres undefined)
pIC50 [1]: 5.29 | pIC50 [2]: 4.59 | pIC50 [3]: 4.87 | pIC50 [4]: 4.97 | pIC50 [5]: 3.92 | pIC50 [6]: 4.01

CC(C)=CC[C@@H](OC(=O)CCCC[C@@H]1CCSC(c2ccc(C(F)(F)F)cc2)S1)C1=CC(=O)c2c(O)ccc(O)c2C1=O (some centres undefined)
pIC50 [1]: 4.93 | pIC50 [2]: 5.02 | pIC50 [3]: 4.63 | pIC50 [4]: 4.99 | pIC50 [5]: 4.04 | pIC50 [6]: 4.13

CC(C)=CC[C@@H](OC(=O)CCCC[C@@H]1CCSS1)C1=CC(=O)c2c(O)ccc(O)c2C1=O
pIC50 [1]: 4.76 | pIC50 [2]: 4.59 | pIC50 [3]: 4.54 | pIC50 [4]: 4.84 | pIC50 [5]: 3.99 | pIC50 [6]: 4.08

CC(C)=CC[C@@H](OC(=O)CCCC[C@@H]1CCSC(c2c(Cl)cccc2Cl)S1)C1=CC(=O)c2c(O)ccc(O)c2C1=O (some centres undefined)
pIC50 [1]: 4.83 | pIC50 [2]: 4.54 | pIC50 [3]: 5.05 | pIC50 [4]: 4.98 | pIC50 [5]: 4.10 | pIC50 [6]: 4.16

CC(C)=CC[C@@H](OC(=O)CCCC[C@@H]1CCSC(c2ccc(Cl)cc2Cl)S1)C1=CC(=O)c2c(O)ccc(O)c2C1=O (some centres undefined)
pIC50 [1]: 4.75 | pIC50 [2]: 4.55 | pIC50 [3]: 5.04 | pIC50 [4]: 4.76 | pIC50 [5]: 3.92 | pIC50 [6]: 4.05

O=C(O)C(Cl)Cl [DICHLOROACETIC ACID]
pIC50 [1]: < 4.00 | pIC50 [2]: < 4.00 | pIC50 [3]: < 4.00 | pIC50 [4]: < 4.00 | pIC50 [5]: < 4.00 | pIC50 [6]: < 4.00 | inhibition [7]: Active | inhibition [8]: Active | inhibition [9]: Active

CC(=O)O[C@H]1C(=O)[C@@]2(C)[C@H]([C@H](OC(=O)c3ccccc3)[C@]3(O)C[C@H](OC(=O)[C@H](O)[C@@H](NC(=O)c4ccccc4)c4ccccc4)C(C)=C1C3(C)C)[C@]1(OC(C)=O)CO[C@@H]1C[C@@H]2O
Activity [10]: Active | Activity [11]: Active

CC(C)=CC[C@@H](OC(=O)CCCC[C@@H]1CCSC(c2ccc(C(C)C)cc2)S1)C1=CC(=O)c2c(O)ccc(O)c2C1=O (some centres undefined)
pIC50 [1]: 4.59 | pIC50 [2]: 5.05 | pIC50 [3]: 4.76 | pIC50 [4]: 4.71 | pIC50 [5]: 4.07 | pIC50 [6]: 3.97

COc1cc2c(c(OC)c1OC)-c1ccc(OC)c(=O)cc1[C@@H](NC(C)=O)CC2 [COLCHICINE]
pIC50 [1]: 5.33 | pIC50 [2]: 5.41 | pIC50 [3]: 5.60 | pIC50 [4]: 5.33 | pIC50 [5]: 5.52 | pIC50 [6]: 5.20 | inhibition [12]: Active | inhibition [13]: Active

CC(C)=CC[C@@H](OC(=O)CCCC[C@@H]1CCSC(c2ccc([N+](=O)[O-])cc2)S1)C1=CC(=O)c2c(O)ccc(O)c2C1=O (some centres undefined)
pIC50 [1]: 4.69 | pIC50 [2]: 4.79 | pIC50 [3]: 4.57 | pIC50 [4]: 4.65 | pIC50 [5]: 4.02 | pIC50 [6]: 4.02

COc1ccc(C2SCC[C@@H](CCCCC(=O)O[C@H](CC=C(C)C)C3=CC(=O)c4c(O)ccc(O)c4C3=O)S2)cc1 (some centres undefined)
pIC50 [1]: 4.52 | pIC50 [2]: 4.75 | pIC50 [3]: 4.80 | pIC50 [4]: 4.68 | pIC50 [5]: 4.02 | pIC50 [6]: 3.98

CC(C)=CC[C@@H](OC(=O)CCCC[C@@H]1CCSC(c2cccc(C(F)(F)F)c2)S1)C1=CC(=O)c2c(O)ccc(O)c2C1=O (some centres undefined)
pIC50 [1]: 5.34 | pIC50 [2]: 4.45 | pIC50 [3]: 4.70 | pIC50 [4]: 4.71 | pIC50 [5]: 3.87 | pIC50 [6]: 4.08

COc1ccc(C2SCC[C@@H](CCCCC(=O)O[C@H](CC=C(C)C)C3=CC(=O)c4c(O)ccc(O)c4C3=O)S2)cc1OC (some centres undefined)
pIC50 [1]: 5.36 | pIC50 [2]: 4.78 | pIC50 [3]: 4.66 | pIC50 [4]: 4.71 | pIC50 [5]: 4.00 | pIC50 [6]: 3.93

CC(C)=CC[C@@H](OC(=O)CCCC[C@@H]1CCSC(c2cccc(Br)c2)S1)C1=CC(=O)c2c(O)ccc(O)c2C1=O (some centres undefined)
pIC50 [1]: 4.66 | pIC50 [2]: 4.57 | pIC50 [3]: 4.88 | pIC50 [4]: 4.65 | pIC50 [5]: 4.03 | pIC50 [6]: 3.99

COc1ccccc1C1SCC[C@@H](CCCCC(=O)O[C@H](CC=C(C)C)C2=CC(=O)c3c(O)ccc(O)c3C2=O)S1 (some centres undefined)
pIC50 [1]: 4.57 | pIC50 [2]: 4.62 | pIC50 [3]: 5.00 | pIC50 [4]: 5.22 | pIC50 [5]: 3.93 | pIC50 [6]: 4.10

CC(C)=CC[C@@H](OC(=O)CCCC[C@@H]1CCSC(c2ccc(C)cc2)S1)C1=CC(=O)c2c(O)ccc(O)c2C1=O (some centres undefined)
pIC50 [1]: 4.34 | pIC50 [2]: 4.93 | pIC50 [3]: 4.94 | pIC50 [4]: 4.92 | pIC50 [5]: 4.07 | pIC50 [6]: 4.05

CC(C)=CC[C@@H](O)C1=CC(=O)c2c(O)ccc(O)c2C1=O [SHIKONIN]
pIC50 [1]: 5.16 | pIC50 [2]: 5.06 | pIC50 [3]: 5.16 | pIC50 [4]: 5.45 | pIC50 [5]: 5.47 | pIC50 [6]: 4.20 | Activity [14]: 63.83% | Activity [15]: 17.42% | Activity [16]: 18.75% | Activity [17]: 62.72% | Activity [18]: 13.25% | Activity [19]: 24.03% | Activity [20]: 57.75% | Activity [21]: 14.13% | Activity [22]: 28.12% | inhibition [23]: Active | Activity [24]: Active | Activity [25]: Toxic
